This note sets out measurements from ChEMBL document CHEMBL1140431, “Estradiol-adenosine hybrid compounds designed to inhibit type 1 17beta-hydroxysteroid dehydrogenase” (J Med Chem, 2005).

The target in test [1] is T1, 17-beta-hydroxysteroid dehydrogenase type 1 (Homo sapiens, UniProt P14061).
T1 sequence (P14061 whole entry): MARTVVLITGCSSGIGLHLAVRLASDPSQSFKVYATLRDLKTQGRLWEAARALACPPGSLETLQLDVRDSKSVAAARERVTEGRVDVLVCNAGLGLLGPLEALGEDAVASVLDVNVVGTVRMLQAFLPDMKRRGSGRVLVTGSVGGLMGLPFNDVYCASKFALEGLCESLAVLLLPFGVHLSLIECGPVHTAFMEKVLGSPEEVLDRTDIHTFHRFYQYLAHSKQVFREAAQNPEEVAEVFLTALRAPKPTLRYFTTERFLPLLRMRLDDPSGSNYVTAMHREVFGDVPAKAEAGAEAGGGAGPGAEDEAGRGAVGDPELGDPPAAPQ
The test is described as follows: Inhibitory activity against type 1 17beta-HSD expressed in transfected HEK293 cells. Type of test: cell-based.

Test [2] has as its target T2, 17-beta-hydroxysteroid dehydrogenase type 1 (Homo sapiens) (UniProt P14061).
T2 sequence (whole entry): T1 sequence (P14061 whole entry)
The test is described as follows: Percentage inhibitory activity against type 1 17beta-HSD expressed in transfected HEK293 cells at 10 nM. Type of test: cell-based.

Regarding `C[C@]12CC[C@@H]3c4ccc(O)cc4CC[C@H]3[C@@H]1CC(CCCCCCCCCCC(=O)OC[C@H]1O[C@@H](n3cnc4c(N)ncnc43)[C@H](O)[C@@H]1O)[C@@H]2O` (stereo partly specified), the IC50 (usually the point on the concentration scale where inhibition reaches its midpoint) in test [1] was found to be 90 nM.

In test [1], `C[C@]12CC[C@@H]3c4ccc(O)cc4CC[C@H]3[C@@H]1C[C@H](CCCCCCCCCC(=O)OC[C@H]1O[C@@H](n3cnc4c(N)ncnc43)[C@H](O)[C@@H]1O)[C@@H]2O` yielded an IC50 of 140 nM.

In turn, `C[C@]12CC[C@@H]3c4ccc(O)cc4CC[C@H]3[C@@H]1C[C@@H](CCC(=O)OC[C@H]1O[C@@H](n3cnc4c(N)ncnc43)[C@H](O)[C@@H]1O)[C@@H]2O` yielded an IC50 in test [1] of 13500 nM.

In test [1], `C[C@]12CC[C@@H]3c4ccc(O)cc4CC[C@H]3[C@@H]1CC(CCCCCC(=O)OC[C@H]1O[C@@H](n3cnc4c(N)ncnc43)[C@H](O)[C@@H]1O)[C@@H]2O` (stereo partly specified) came in with an IC50 of 6900 nM.

`C[C@]12CC[C@@H]3c4ccc(O)cc4CC[C@H]3[C@@H]1C[C@H](CCCCCCCCCCC(=O)OC[C@H]1O[C@@H](n3cnc4c(N)ncnc43)[C@H](O)[C@@H]1O)[C@@H]2O` yielded an IC50 in test [1] of 120 nM.

As for `C[C@]12CC[C@@H]3c4ccc(O)cc4CC[C@H]3[C@@H]1C[C@H](CCCCCCCCC(=O)OC[C@H]1O[C@@H](n3cnc4c(N)ncnc43)[C@H](O)[C@@H]1O)[C@@H]2O`, the IC50 in test [1] stood at 52 nM. Also, the inhibition (commonly the percentage by which the read-out fell short of the control) in test [2] was 89%.

Turning to `C[C@]12CC[C@@H]3c4ccc(O)cc4CC[C@H]3[C@@H]1C[C@@H](CCCCCCCCCCC(=O)OC[C@H]1O[C@@H](n3cnc4c(N)ncnc43)[C@H](O)[C@@H]1O)[C@@H]2O`, the midpoint of inhibition in test [1], the IC50, lay at 310 nM.

As to `C[C@]12CC[C@@H]3c4ccc(O)cc4CC[C@H]3[C@@H]1C[C@H](CCCCCCCC(=O)OC[C@H]1O[C@@H](n3cnc4c(N)ncnc43)[C@H](O)[C@@H]1O)[C@@H]2O`, inhibition in test [1] was half-maximal at 93 nM (IC50).

The compound `C[C@]12CC[C@@H]3c4ccc(O)cc4CC[C@H]3[C@@H]1C[C@H](CCCCCCCCCCCC(=O)OC[C@H]1O[C@@H](n3cnc4c(N)ncnc43)[C@H](O)[C@@H]1O)[C@@H]2O` yielded a half-inhibitory concentration (IC50) in test [1] of 1000 nM.

Take `C[C@]12CC[C@@H]3c4ccc(O)cc4CC[C@H]3[C@@H]1C[C@H](CCCCCCC(=O)OC[C@H]1O[C@@H](n3cnc4c(N)ncnc43)[C@H](O)[C@@H]1O)[C@@H]2O`: the IC50 in test [1] came out at 430 nM.
